Twelve compounds from patent publication US8278290B2, “Tubulin polymerisation inhibitors” (Biononics Limited, priority 2005, dated 2012) can be followed below.

The test system of assay [1] is Human umbilical vein endothelial cells. Description: Proliferation Assay - activated endothelium (MTT). The settings on record: HUVEC, range within which the IC50 value falls, 48 hrs culture, read-out: Inhib activated HUVECs IC50. The assay is classed as cell-based. Here is the method:
Proliferation Assay—activated endothelium: Human umbilical vein endothelial cells (CC-2519, Clonetics) were plated at 2500 cells/well in EGM2 (CC-3162, Clonetics) in a 96 well plate in triplicate. Cells were cultured overnight at 37° C. 5% CO2. Medium was subsequently replaced with fresh medium including the compound or negative control. Cells were cultured for a period of 48 hrs. An MTT assay was performed to measure changes in cell numbers. Briefly, 20 μl of MTT reagent was added to cells containing 100 μl of EGM2 and incubated at 37° C. for 2 hours. Absorbance was measured at 492 nm.

A further assay relates to MCF-7, cancer cell line. Description: MCF-7 growth inhibition (SRB or Sysmex cell counting). It counts as cell-based. Particulars: SRB or CC assay.
Setting [2] is: Homo sapiens, MCF7, concentration required to inhibit net cell growth by 50%.
Setting [3] is: concentration required to inhibit net cell growth by 50%.

Take `COc1cc(C(=O)c2c(-c3cnn(C)c3)oc3c(F)c(OC)ccc23)cc(OC)c1OC` [Entry 41]: the IC50 in assay [1] was 1 to 10 nM; with MCF-7, cancer cell line (setting [2]) it was 4.2 nM; with MCF-7, cancer cell line (setting [3]), 3.6 nM.

Take `COc1ccc2c(C(=O)c3cc(OC)c(OC)c(OC)c3)c(-c3cnn(CCN(C)C)c3)oc2c1` [Entry 42, {2-[1-(2-Dimethylamino-ethyl)-1H-pyrazol-4-yl]-6-methoxy-benzofuran-3-yl}-(3,4,5-trimethoxyphenyl)-methanone]: the half-inhibitory concentration (IC50) was 100 to 1000 nM in assay [1]; 300 nM in the assay with MCF-7, cancer cell line (setting [2]); 310 nM with MCF-7, cancer cell line (setting [3]).

Consider `COc1cc(C(=O)c2c(-n3cncn3)oc3c(O)c(OC)ccc23)cc(OC)c1OC` [Entry 43, 2-(1,2,4-triazol-1-yl)-7-hydroxy-3-(3,4,5-trimethoxybenzoyl)-6-methoxy-benzo[b]furan], for which the IC50 in assay [1] was 0.1 to 1 nM; with MCF-7, cancer cell line (setting [2]) it was 0.37 nM; with MCF-7, cancer cell line (setting [3]), 0.32 nM.

On to `COc1ccc2c(C(=O)c3cc(OC)c(OC)c(OC)c3)c(-c3c[nH]cn3)oc2c1` [Entry 45, [2-(1H-Imidazol-4-yl)-6-methoxy-benzofuran-3-yl]-(3,4,5-trimethoxyphenyl)-methanone], for which the IC50 in assay [1] was 1 to 10 nM; in the assay on MCF-7, cancer cell line (setting [2]), 4.5 nM; in the assay on MCF-7, cancer cell line (setting [3]), 5.7 nM.

For `COc1ccc2c(C(=O)c3cc(OC)c(OC)c(OC)c3)c(N3CCN(C)CC3)oc2c1` [Entry 46, 2-(4-N-Methylpiperazino)-3-(3,4,5-trimethoxybenzoyl)-6-methoxy-benzo[b]furan], the IC50 is 100 to 1000 nM in assay [1]; 200 nM with MCF-7, cancer cell line (setting [2]); 230 nM in the assay with MCF-7, cancer cell line (setting [3]).

As for `COc1ccc2c(C(=O)c3cc(OC)c(OC)c(OC)c3)c(-c3ccco3)oc2c1` [Entry 52, 2-(2-Furyl)-6-methoxy-3-(3,4,5-trimethoxybenzoyl)benzo[b]furan], the IC50 was 1 to 10 nM in assay [1]; 6.9 nM with MCF-7, cancer cell line (setting [2]); 7.9 nM in the assay with MCF-7, cancer cell line (setting [3]).

Turning to `COc1cc(C(=O)c2c(-c3cnn(CC(N)=O)c3)oc3c(F)c(OC)ccc23)cc(OC)c1OC` [Entry 53, 2-{4-[7-Fluoro-6-methoxy-3-(3,4,5-trimethoxybenzoyl)benzofuran-2-yl]-1H-pyrazol-1-yl}acetamide], the IC50 was 0.1 to 1 nM in assay [1]; 7.8 nM in the assay with MCF-7, cancer cell line (setting [2]); 8.1 nM in the assay with MCF-7, cancer cell line (setting [3]).

Turning to `COc1cc(Sc2c(-c3cnn(C)c3)oc3c(N)c(OC)ccc23)cc(OC)c1OC` [Entry 54, 7-Amino-6-methoxy-2-(1-methyl-1H-pyrazol-4-yl)-3-(3,4,5-trimethoxyphenylthio)benzo[b]furan], the IC50 lay in the range of 1 to 10 nM in assay [1] and 0.1 to 1 nM in the assay with MCF-7, cancer cell line (setting [2]).

`COc1ccc2c(/C(=N/O)c3cc(OC)c(OC)c(OC)c3)c(-c3cnn(C)c3)oc2c1` [Entry 55, (E/Z)-6-methoxy-2-(1-methyl-1H-pyrazol-4-yl)-3-(3,4,5-trimethoxybenzoyl)benzo[b]furan oxime]: the half-inhibitory concentration (IC50) in assay [1] is 100 to 1000 nM; in the assay on MCF-7, cancer cell line (setting [2]), 100 to 1000 nM.

Turning to `COc1ccc2c(/C(=N/Nc3ccc([N+](=O)[O-])cc3[N+](=O)[O-])c3cc(OC)c(OC)c(OC)c3)c(-c3cnn(C)c3)oc2c1` [Entry 56, (E/Z)-6-Methoxy-2-(1-methyl-1H-pyrazol-4-yl)-3-(3,4,5-trimethoxybenzoyl)benzo[b]furan 2,4-dinitrophenylhydrazone], the IC50 in assay [1] is 100 to 1000 nM; with MCF-7, cancer cell line (setting [2]), greater than 1000 nM.

Regarding `COc1cc(C(=O)c2c(-c3nn[nH]n3)oc3c(O)c(OC)ccc23)cc(OC)c1OC` [Entry 57, 7-Hydoxy-6-methoxy-2-(2H-tetrazol-5-yl)-3-(3,4,5-trimethoxybenzoyl)-benzo[b]furan], the IC50 is 10 to 100 nM in assay [1] and 10 to 100 nM with MCF-7, cancer cell line (setting [2]).

`COc1cc(C(=O)c2c(-c3c[nH]nn3)oc3c(O)c(OC)ccc23)cc(OC)c1OC` [Entry 58, 17-Hydroxy-6-methoxy-2-(2H-[1,2,3]triazol-4-yl)-3-(3,4,5-trimethoxybenzoyl)benzo[b]furan]: the IC50 in assay [1] fell in the range of 1 to 10 nM; with MCF-7, cancer cell line (setting [2]), 1 to 10 nM.
